The source made the active and inactive calls. The rule behind the calls is not given here.
What was measured:
[1] = target: Activin receptor type-1-like (Homo sapiens) (UniProt P37023); experiment: Inhibition of ALK1 (unknown origin) at 1 uM
[2] = target: T1, Cytochrome P450 2B6 (Homo sapiens, UniProt P20813)
T1 sequence (P20813 whole entry): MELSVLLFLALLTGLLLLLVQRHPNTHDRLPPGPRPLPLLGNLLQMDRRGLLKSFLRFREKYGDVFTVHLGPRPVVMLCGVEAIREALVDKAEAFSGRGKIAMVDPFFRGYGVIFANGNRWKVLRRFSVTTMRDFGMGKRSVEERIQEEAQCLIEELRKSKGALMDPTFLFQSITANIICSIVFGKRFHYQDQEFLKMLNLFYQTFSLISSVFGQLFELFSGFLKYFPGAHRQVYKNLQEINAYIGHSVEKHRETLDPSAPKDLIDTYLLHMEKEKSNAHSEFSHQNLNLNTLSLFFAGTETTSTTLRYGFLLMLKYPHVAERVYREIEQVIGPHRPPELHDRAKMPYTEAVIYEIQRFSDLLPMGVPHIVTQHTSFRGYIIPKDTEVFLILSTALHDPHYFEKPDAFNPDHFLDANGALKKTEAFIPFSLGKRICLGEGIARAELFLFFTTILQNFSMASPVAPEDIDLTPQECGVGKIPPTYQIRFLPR
Description: Inhibition of CYP2B6 in human liver microsomes using bupropion as substrate incubated for 40 mins in presence of NADPH by LC-MS/MS analysis

[3] = target: Activin receptor type-1 (Homo sapiens, UniProt Q04771, G328V); experiment: Inhibition of ALK2 G328V mutant (unknown origin)
Sequence of Activin receptor type-1 (Homo sapiens, UniProt Q04771, G328V) (Q04771 21-509 G328V limits assumed): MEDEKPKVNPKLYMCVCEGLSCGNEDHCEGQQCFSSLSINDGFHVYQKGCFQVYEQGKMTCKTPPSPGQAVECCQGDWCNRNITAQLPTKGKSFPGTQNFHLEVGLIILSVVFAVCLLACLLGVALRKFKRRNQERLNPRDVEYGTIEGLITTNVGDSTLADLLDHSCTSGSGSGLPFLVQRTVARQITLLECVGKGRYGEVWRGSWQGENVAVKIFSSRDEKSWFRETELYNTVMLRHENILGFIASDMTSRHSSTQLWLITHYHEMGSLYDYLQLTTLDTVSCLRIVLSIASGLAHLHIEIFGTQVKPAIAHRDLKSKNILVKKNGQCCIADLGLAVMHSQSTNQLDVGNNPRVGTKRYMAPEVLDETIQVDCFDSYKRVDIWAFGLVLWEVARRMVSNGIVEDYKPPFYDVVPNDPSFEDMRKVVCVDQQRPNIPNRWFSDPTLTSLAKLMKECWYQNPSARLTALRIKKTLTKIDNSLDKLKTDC

[4] = mouse, brain, po, 100 mg/kg, 4 h
Description: Ratio of total drug concentration from brain to plasma in CB17 SCID mouse at 100 mg/kg, po measured after 4 hrs

[5] = target: T2, Activin receptor type-1 (Homo sapiens, UniProt Q04771); experiment: Inhibition of C-terminal nanoluciferase-fused ALK2 (unknown origin) expressed in HEK293 cells incubated for 2 hrs followed by NanoBRET NanoGlo Substrate addition by NanoBRET assay; format: cell-based
T2 sequence (Q04771 whole entry): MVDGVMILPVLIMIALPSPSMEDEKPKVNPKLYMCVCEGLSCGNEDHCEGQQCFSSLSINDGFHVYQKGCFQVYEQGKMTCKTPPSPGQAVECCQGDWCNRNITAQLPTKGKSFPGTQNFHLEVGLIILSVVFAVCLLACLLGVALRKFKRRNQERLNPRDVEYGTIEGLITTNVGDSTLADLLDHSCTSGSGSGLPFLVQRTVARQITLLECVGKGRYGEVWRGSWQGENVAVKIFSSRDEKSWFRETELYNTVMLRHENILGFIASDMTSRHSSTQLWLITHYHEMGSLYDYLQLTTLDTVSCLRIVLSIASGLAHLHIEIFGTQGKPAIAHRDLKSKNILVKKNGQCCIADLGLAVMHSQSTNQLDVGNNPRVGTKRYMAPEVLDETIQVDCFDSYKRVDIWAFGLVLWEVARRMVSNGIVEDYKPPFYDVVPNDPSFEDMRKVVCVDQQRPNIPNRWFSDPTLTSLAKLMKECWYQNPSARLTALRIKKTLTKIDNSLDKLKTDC

[6] = target: T3, TGF-beta receptor type-1 (Homo sapiens, UniProt P36897); format: single protein
T3 sequence (P36897 whole entry): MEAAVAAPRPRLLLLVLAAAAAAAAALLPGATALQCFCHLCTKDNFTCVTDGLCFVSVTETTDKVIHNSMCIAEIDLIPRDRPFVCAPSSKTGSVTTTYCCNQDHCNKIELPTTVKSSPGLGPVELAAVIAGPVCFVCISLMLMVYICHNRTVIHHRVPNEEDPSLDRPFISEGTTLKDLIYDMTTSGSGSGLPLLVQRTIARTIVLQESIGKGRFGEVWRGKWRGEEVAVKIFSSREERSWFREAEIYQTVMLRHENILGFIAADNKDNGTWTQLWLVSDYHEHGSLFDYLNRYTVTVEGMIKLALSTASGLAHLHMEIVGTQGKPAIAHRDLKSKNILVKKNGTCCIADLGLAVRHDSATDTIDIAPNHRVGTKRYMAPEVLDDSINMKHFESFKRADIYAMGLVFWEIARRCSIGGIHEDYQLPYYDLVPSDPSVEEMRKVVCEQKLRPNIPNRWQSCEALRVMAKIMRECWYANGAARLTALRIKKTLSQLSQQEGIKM
Description: Inhibition of human ALK5 using casein as substrate in presence of 10 uM [gamma33P] ATP by radioactive assay

Sequence of Activin receptor type-1-like (Homo sapiens) (P37023 whole entry): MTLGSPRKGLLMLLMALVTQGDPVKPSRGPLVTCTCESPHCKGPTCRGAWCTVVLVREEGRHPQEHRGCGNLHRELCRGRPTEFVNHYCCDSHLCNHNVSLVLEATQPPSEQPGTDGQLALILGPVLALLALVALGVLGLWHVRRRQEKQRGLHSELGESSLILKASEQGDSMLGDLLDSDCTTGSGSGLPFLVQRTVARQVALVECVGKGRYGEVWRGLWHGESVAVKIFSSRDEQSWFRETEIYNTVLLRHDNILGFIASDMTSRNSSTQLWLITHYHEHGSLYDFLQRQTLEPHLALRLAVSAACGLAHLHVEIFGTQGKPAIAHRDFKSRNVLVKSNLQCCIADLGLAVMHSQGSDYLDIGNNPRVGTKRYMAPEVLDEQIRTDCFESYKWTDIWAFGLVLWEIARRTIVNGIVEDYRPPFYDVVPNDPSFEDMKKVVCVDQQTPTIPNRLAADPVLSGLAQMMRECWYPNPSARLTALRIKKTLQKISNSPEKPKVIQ

With `COc1cc(-c2cncc(-c3ccc(N4CCN(C)CC4)cc3)c2C)cc(F)c1C(N)=O` as the molecule, how does the inhibition [1] read?
The inhibition was “Active”.

And the IC50 [2]?
Its IC50 is over 50000 nM.

And the IC50 [3]?
The IC50 was 16 nM.

And the BPR [4]?
Its BPR is 0.178.

And the IC50 [5]?
Its IC50 is 93 nM.

And the IC50 [6]?
Its IC50 is 1050 nM.

Source: ChEMBL document CHEMBL4402613, “Targeting ALK2: An Open Science Approach to Developing Therapeutics for the Treatment of Diffuse Intrinsic Pontine Glioma” (J Med Chem, 2020)
